# What was measured:
# Type in all cases: in vivo
# Vespa mandarinia = assay: Grape juice attraction trap set outside
# Method: (§1) The inventors conducted the experiment at four places in Kagawa Prefecture Kinbuchi Forest Park. The experiment was conducted totally 4 times from Oct. 11 to Nov. 4, 2013, from Nov. 4 to Dec. 7, 2013, from Oct. 1 to Oct. 31, 2014, and from Oct. 31 to Dec. 9, 2014.
# (§2) First, four 2 cm square holes were opened on the side of a 2 L capacity PET bottle, and 500 mL of grape juice was added thereto to prepare a control attraction trap to kill a Vespidae worker. As Test liquid example, 25 mL, 5 mL or 1 mL of 2-phenylethanol was added to the grape juice of the traps. […] Since all of the test sites were low mountainous and sloping areas and had many trees, each trap had to be suspended from the branch of live trees. As a result, the horizontal distances between a pair of control example trap and test liquid example trap could not be adjusted to the same, and the distance was from 1 m to 8.5 m. There were not only Vespidae worker but also male Vespidae among the killed Vespidae wasps in the attraction traps; however, the results of the control example and test liquid example were compared on the basis of the number of the killed Vespidae worker, since a Vespidae worker causes a stabbing accident and plays an important role in building a nest. In Table 8, “*” indicates the case where there is a significant difference at p<0.01 in the χ^2 test to which the correction of Yates is applied, and “**” indicates the case where there is a significant difference at p<0.001 in the same test. The result of the first experiment in 2013 is shown in Table 9, the result of the second experiment in 2013 is shown in Table 10, the result of the first experiment using 1% 2-phenylethanol in 2014 is shown in Table 11, the result of the second experiment in 2014 is shown in Table 12, the result of the first experiment using 0.1% 2-phenylethanol in 2014 is shown in Table 13, and the result of the second experiment in 2014 is shown in Table 14. In Tables 9 to 14, “*” indicates the case where there is a significant difference at p<0.05 in the t-test, “**” indicates the case where there is a significant difference at p<0.01 in the same test, and “***” indicates the case where there is a significant difference at p<0.001 in the same test.
# (§3) In the first experiment and second experiment, the trap prepared by adding 25 mL of 2-phenylethanol to 500 mL of grape juice was used as the test liquid example of 5% 2-phenylethanol.
# (§4) In the first experiment and second experiment, 10 traps prepared by adding 5 mL of 2-phenylethanol to 500 mL of grape juice and 10 traps prepared by adding 0.5 mL of 2-phenylethanol to 500 mL of grape juice were used respectively as the 2 kinds of test liquid examples of 1% 2-phenylethanol and 0.1% 2-phenylethanol to conduct the experiment.
# [1] = tested on: Vespa simillima xanthoptera; assay: Grape juice attraction trap set outside
# Method: as §1, §2, §3, §4
# [2] = tested on: Vespidae worker, all species; assay: Grape juice attraction trap set outside
# Method: as §1, §2, §3, §4
# [3] = tested on: Vespa analis insularis (Fabricius) worker; assay: Black ball nest disturbance, Experiment 1
# Method: The experiment was conducted with utilizing a nest of Vespa analis insularis (Fabricius) built under an awning of a private house in Iida-cho Takamatsu City on Sep. 9, 2015.
# A black ball was hung on the tip of a fishing rod having a length of 11 m, and distilled water was sprayed on the entire surface of the black ball. While the surface of the nest was tapped with the tip of the fishing rod once every about 10 seconds, the worker's action against the black ball was taken and recorded with a video camera for 5 minutes. When the nest was hit, the black ball was in close proximity to the nest as the black ball was about to touch the nest, and when the nest was not hit, the black ball was kept still in the air about 50 cm away from the nest surface. The thus recorded video footage was replayed, and the number of worker which flew to and alighted on the hemisphere surface of the black ball for attack was counted. Similar experiments were conducted with respect to the black ball prepared by spraying benzyl alcohol on the entire surface of a new black ball as “Test liquid example 1” and the black ball prepared by spraying benzyl alcohol on the entire surface of the control example black ball on which alarm pheromone was adsorbed by the worker's attack as “Test liquid example 2”. In addition, a picture of the video footage 234 seconds after the start of the nest disturbance is shown as FIG. 3. FIG. 3A is an image of the control example that distilled water was used, FIG. 3B is an image of the Test liquid example 1, and FIG. 3C is an image of the Test liquid example 2.
# [4] = 0.1% 2-phenylethanol trap, first experiment 2014, 10 traps
# [5] = 0.1% 2-phenylethanol trap, second experiment 2014, 10 traps
# [6] = 1% 2-phenylethanol trap, first experiment 2014, 10 traps
# [7] = 1% 2-phenylethanol trap, second experiment 2014, 10 traps
# [8] = 5% 2-phenylethanol trap, first experiment 2013, 18 traps
# [9] = 5% 2-phenylethanol trap, second experiment 2013, 18 traps
smiles,measurement,setting,value
"OCCc1ccccc1 [2-Phenylethanol, 2-phenylethanol]","Total number of killed worker (Average ± SD), Vespa mandarinia",Vespa mandarinia; [4],(3.60 ± 5.58)
same,"Total number of killed worker, Vespa mandarinia",Vespa mandarinia; [4],36
same,"Total number of killed worker (Average ± SD), Vespa mandarinia",Vespa mandarinia; [5],(0.30 ± 0.95)
same,"Total number of killed worker, Vespa mandarinia",Vespa mandarinia; [5],3
same,"Total number of killed worker (Average ± SD), Vespa mandarinia",Vespa mandarinia; [6],(0.00 ± 0.00)
same,"Total number of killed worker, Vespa mandarinia",Vespa mandarinia; [6],0
same,"Total number of killed worker (Average ± SD), Vespa mandarinia",Vespa mandarinia; [7],(0.00 ± 0.00)
same,"Total number of killed worker, Vespa mandarinia",Vespa mandarinia; [7],0
same,"Total number of killed worker (Average ± SD), Vespa mandarinia",Vespa mandarinia; [8],(0.00 ± 0.00)
same,"Total number of killed worker, Vespa mandarinia",Vespa mandarinia; [8],0
same,"Total number of killed worker (Average ± SD), Vespa mandarinia",Vespa mandarinia; [9],(0.00 ± 0.00)
same,"Total number of killed worker, Vespa mandarinia",Vespa mandarinia; [9],0
same,"Total number of killed worker (Average ± SD), Vespa simillima xanthoptera",[1]; [4],(0.10 ± 0.32)
same,"Total number of killed worker, Vespa simillima xanthoptera",[1]; [4],1
same,"Total number of killed worker (Average ± SD), Vespa simillima xanthoptera",[1]; [5],(0.00 ± 0.00)
same,"Total number of killed worker, Vespa simillima xanthoptera",[1]; [5],0
same,"Total number of killed worker (Average ± SD), Vespa simillima xanthoptera",[1]; [6],(0.00 ± 0.00)
same,"Total number of killed worker, Vespa simillima xanthoptera",[1]; [6],0
same,"Total number of killed worker (Average ± SD), Vespa simillima xanthoptera",[1]; [7],(0.00 ± 0.00)
same,"Total number of killed worker, Vespa simillima xanthoptera",[1]; [7],0
same,"Total number of killed worker (Average ± SD), Vespa simillima xanthoptera",[1]; [8],(0.00 ± 0.00)
same,"Total number of killed worker, Vespa simillima xanthoptera",[1]; [8],0
same,"Total number of killed worker (Average ± SD), Vespa simillima xanthoptera",[1]; [9],(0.00 ± 0.00)
same,"Total number of killed worker, Vespa simillima xanthoptera",[1]; [9],0
same,Number of effective trap,"[2]; 0.1% 2-phenylethanol in grape juice, 2014, 1st experiment, 10 installed traps",10
same,Number of effective trap,"[2]; 0.1% 2-phenylethanol in grape juice, 2014, 2nd experiment, 10 installed traps",1
same,"Total number of killed worker (Average ± SD), All species",[2]; [4],(6.20 ± 6.27)
same,"Total number of killed worker, All species",[2]; [4],62
same,"Total number of killed worker (Average ± SD), All species",[2]; [5],(0.30 ± 0.95)
same,"Total number of killed worker, All species",[2]; [5],3
same,Number of effective trap,"[2]; 1% 2-phenylethanol in grape juice, 2014, 1st experiment, 10 installed traps",0
same,Number of effective trap,"[2]; 1% 2-phenylethanol in grape juice, 2014, 2nd experiment, 10 installed traps",0
same,"Total number of killed worker (Average ± SD), All species",[2]; [6],(0.00 ± 0.00)
same,"Total number of killed worker, All species",[2]; [6],0
same,"Total number of killed worker (Average ± SD), All species",[2]; [7],(0.00 ± 0.00)
same,"Total number of killed worker, All species",[2]; [7],0
same,Number of effective trap,"[2]; 5% 2-phenylethanol in grape juice, 2013, 1st experiment, 18 installed traps",0
same,Number of effective trap,"[2]; 5% 2-phenylethanol in grape juice, 2013, 2nd experiment, 18 installed traps",0
same,"Total number of killed worker (Average ± SD), All species",[2]; [8],(0.00 ± 0.00)
same,"Total number of killed worker, All species",[2]; [8],0
same,"Total number of killed worker (Average ± SD), All species",[2]; [9],(0.00 ± 0.00)
same,"Total number of killed worker, All species",[2]; [9],0
same,time for which 2-phenylethanol contained in grape juice maintained its effect,[2]; 5% and 1% 2-phenylethanol traps,at least about one month
"OCc1ccccc1 [Benzyl alcohol, benzyl alcohol]",number of worker alighted on hemisphere surface of black ball for attack,"[3]; 30 s, benzyl alcohol on ball with adsorbed alarm pheromone",0
same,number of worker alighted on hemisphere surface of black ball for attack,"[3]; 30 s, benzyl alcohol on new black ball",0
same,number of worker alighted on hemisphere surface of black ball for attack,"[3]; 60 s, benzyl alcohol on ball with adsorbed alarm pheromone",1
same,number of worker alighted on hemisphere surface of black ball for attack,"[3]; 60 s, benzyl alcohol on new black ball",0
same,number of worker alighted on hemisphere surface of black ball for attack,"[3]; 90 s, benzyl alcohol on ball with adsorbed alarm pheromone",0
same,number of worker alighted on hemisphere surface of black ball for attack,"[3]; 90 s, benzyl alcohol on new black ball",2
same,number of worker alighted on hemisphere surface of black ball for attack,"[3]; 120 s, benzyl alcohol on ball with adsorbed alarm pheromone",0
same,number of worker alighted on hemisphere surface of black ball for attack,"[3]; 120 s, benzyl alcohol on new black ball",1
same,number of worker alighted on hemisphere surface of black ball for attack,"[3]; 150 s, benzyl alcohol on ball with adsorbed alarm pheromone",0
same,number of worker alighted on hemisphere surface of black ball for attack,"[3]; 150 s, benzyl alcohol on new black ball",0
same,number of worker alighted on hemisphere surface of black ball for attack,"[3]; 180 s, benzyl alcohol on ball with adsorbed alarm pheromone",0
same,number of worker alighted on hemisphere surface of black ball for attack,"[3]; 180 s, benzyl alcohol on new black ball",0
same,number of worker alighted on hemisphere surface of black ball for attack,"[3]; 210 s, benzyl alcohol on ball with adsorbed alarm pheromone",0
same,number of worker alighted on hemisphere surface of black ball for attack,"[3]; 210 s, benzyl alcohol on new black ball",0
same,number of worker alighted on hemisphere surface of black ball for attack,"[3]; 240 s, benzyl alcohol on ball with adsorbed alarm pheromone",0
same,number of worker alighted on hemisphere surface of black ball for attack,"[3]; 240 s, benzyl alcohol on new black ball",0
same,number of worker alighted on hemisphere surface of black ball for attack,"[3]; 270 s, benzyl alcohol on ball with adsorbed alarm pheromone",0
same,number of worker alighted on hemisphere surface of black ball for attack,"[3]; 270 s, benzyl alcohol on new black ball",0
same,number of worker alighted on hemisphere surface of black ball for attack,"[3]; 300 s, benzyl alcohol on ball with adsorbed alarm pheromone",0
same,number of worker alighted on hemisphere surface of black ball for attack,"[3]; 300 s, benzyl alcohol on new black ball",0
same,repellent effect,[3]; in vivo,strong repellent effect

# Source: patent US11470844B2, “Vespidae wasp repellent” (KINP CO., LTD, priority 2015, dated 2022)
